Results from the NIST ThermoML archive (doi:10.1021/je800110r).
Numbers after ± are expanded uncertainties.

Conditions: 313.14 K, Liquid, Vibrating tube method

CCCCCCCCCC [decane]
Conditions | mass density [kg/m3]
15552 kPa | 727.4 ± 2
15582 kPa | 727.2 ± 2
15613 kPa | 727.3 ± 2
15637 kPa | 727.3 ± 2
15663 kPa | 727.3 ± 2
15908 kPa | 727.6 ± 2
15941 kPa | 727.5 ± 2
15972 kPa | 727.6 ± 2
16007 kPa | 727.6 ± 2
16031 kPa | 727.6 ± 2
16067 kPa | 727.7 ± 2
16091 kPa | 727.6 ± 2
16114 kPa | 727.7 ± 2
16151 kPa | 727.8 ± 2
16180 kPa | 727.7 ± 2
16204 kPa | 727.8 ± 2
16241 kPa | 727.8 ± 2
16273 kPa | 727.8 ± 2
16306 kPa | 727.9 ± 2
16338 kPa | 727.9 ± 2
16359 kPa | 727.8 ± 2
16381 kPa | 727.9 ± 2
16402 kPa | 728 ± 2
16427 kPa | 727.9 ± 2
16452 kPa | 727.9 ± 2
16478 kPa | 728 ± 2
16507 kPa | 728 ± 2
16537 kPa | 728 ± 2
16566 kPa | 728 ± 2
16587 kPa | 728 ± 2
16618 kPa | 728.1 ± 2
16648 kPa | 728.1 ± 2
16683 kPa | 728.1 ± 2
16721 kPa | 728.2 ± 2
16748 kPa | 728.1 ± 2
16784 kPa | 728.2 ± 2
16824 kPa | 728.1 ± 2
16860 kPa | 728.2 ± 2
16883 kPa | 728.2 ± 2
16907 kPa | 728.3 ± 2
16935 kPa | 728.3 ± 2
16975 kPa | 728.4 ± 2
16996 kPa | 728.4 ± 2
17023 kPa | 728.3 ± 2
17046 kPa | 728.4 ± 2
17070 kPa | 728.3 ± 2
17101 kPa | 728.4 ± 2
17124 kPa | 728.5 ± 2
17149 kPa | 728.5 ± 2
17170 kPa | 728.4 ± 2
17191 kPa | 728.4 ± 2
17222 kPa | 728.6 ± 2
17243 kPa | 728.6 ± 2
17264 kPa | 728.5 ± 2
17296 kPa | 728.6 ± 2
17320 kPa | 728.5 ± 2
17348 kPa | 728.5 ± 2
17377 kPa | 728.5 ± 2
17408 kPa | 728.6 ± 2
17430 kPa | 728.7 ± 2
17455 kPa | 728.7 ± 2
17481 kPa | 728.6 ± 2
17502 kPa | 728.8 ± 2
17528 kPa | 728.7 ± 2
17557 kPa | 728.8 ± 2
17609 kPa | 728.8 ± 2
17763 kPa | 728.9 ± 2
17790 kPa | 728.9 ± 2
17820 kPa | 729 ± 2
17842 kPa | 729 ± 2
17877 kPa | 729.1 ± 2
17905 kPa | 729 ± 2
17931 kPa | 729.1 ± 2
17958 kPa | 729 ± 2
17988 kPa | 729.1 ± 2
18011 kPa | 729.1 ± 2
18042 kPa | 729.1 ± 2
18062 kPa | 729.2 ± 2
18096 kPa | 729.1 ± 2
18131 kPa | 729.2 ± 2
18170 kPa | 729.2 ± 2
18202 kPa | 729.2 ± 2
18226 kPa | 729.2 ± 2
18249 kPa | 729.2 ± 2
18273 kPa | 729.3 ± 2
18301 kPa | 729.3 ± 2
18325 kPa | 729.4 ± 2
18346 kPa | 729.4 ± 2
18374 kPa | 729.4 ± 2
18403 kPa | 729.5 ± 2
18439 kPa | 729.3 ± 2
18460 kPa | 729.4 ± 2
18494 kPa | 729.4 ± 2
18522 kPa | 729.5 ± 2
18544 kPa | 729.6 ± 2
18569 kPa | 729.5 ± 2
18600 kPa | 729.6 ± 2
18628 kPa | 729.5 ± 2
18646 kPa | 729.5 ± 2
18671 kPa | 729.5 ± 2
18697 kPa | 729.6 ± 2
18722 kPa | 729.5 ± 2
18748 kPa | 729.6 ± 2
18781 kPa | 729.6 ± 2
18812 kPa | 729.7 ± 2
18842 kPa | 729.7 ± 2
18869 kPa | 729.7 ± 2
18894 kPa | 729.8 ± 2
18927 kPa | 729.8 ± 2
18953 kPa | 729.7 ± 2
18979 kPa | 729.8 ± 2
19001 kPa | 729.8 ± 2
19027 kPa | 729.8 ± 2
19054 kPa | 729.8 ± 2
19076 kPa | 729.8 ± 2
19102 kPa | 729.9 ± 2
19133 kPa | 729.9 ± 2
19152 kPa | 730 ± 2
19187 kPa | 730 ± 2
19210 kPa | 729.9 ± 2
19237 kPa | 729.9 ± 2
19256 kPa | 730 ± 2
19287 kPa | 730.1 ± 2
19326 kPa | 730 ± 2
19353 kPa | 730 ± 2
19380 kPa | 730.1 ± 2
19412 kPa | 730.1 ± 2
19441 kPa | 730.2 ± 2
19466 kPa | 730.2 ± 2
19487 kPa | 730.2 ± 2
19512 kPa | 730.2 ± 2
19546 kPa | 730.2 ± 2
19564 kPa | 730.2 ± 2
19582 kPa | 730.2 ± 2
19606 kPa | 730.3 ± 2
19634 kPa | 730.2 ± 2
19655 kPa | 730.3 ± 2
19686 kPa | 730.3 ± 2
19711 kPa | 730.4 ± 2
19727 kPa | 730.4 ± 2
19745 kPa | 730.4 ± 2
19773 kPa | 730.4 ± 2
19804 kPa | 730.3 ± 2
19823 kPa | 730.5 ± 2
19848 kPa | 730.4 ± 2
19867 kPa | 730.5 ± 2
19889 kPa | 730.5 ± 2
19908 kPa | 730.5 ± 2
19940 kPa | 730.5 ± 2
19959 kPa | 730.6 ± 2
19985 kPa | 730.5 ± 2
20008 kPa | 730.6 ± 2
20028 kPa | 730.6 ± 2
20055 kPa | 730.6 ± 2
20074 kPa | 730.5 ± 2
20097 kPa | 730.6 ± 2
20126 kPa | 730.4 ± 2
20150 kPa | 730.6 ± 2
20172 kPa | 730.7 ± 2
20205 kPa | 730.7 ± 2
20221 kPa | 730.7 ± 2
20238 kPa | 730.8 ± 2
20257 kPa | 730.7 ± 2
20287 kPa | 730.8 ± 2
20308 kPa | 730.7 ± 2
20329 kPa | 730.8 ± 2
20385 kPa | 730.8 ± 2
20430 kPa | 730.9 ± 2
20460 kPa | 730.9 ± 2
20488 kPa | 730.9 ± 2
20511 kPa | 731 ± 2
20535 kPa | 730.9 ± 2
20586 kPa | 731 ± 2
20611 kPa | 731 ± 2
20632 kPa | 730.9 ± 2
20663 kPa | 731.1 ± 2
20687 kPa | 731.1 ± 2
20708 kPa | 731 ± 2
20732 kPa | 731.2 ± 2
20767 kPa | 731.1 ± 2
20791 kPa | 731.2 ± 2
20819 kPa | 731.1 ± 2
20850 kPa | 731.2 ± 2
20872 kPa | 731.1 ± 2
20900 kPa | 731.1 ± 2
20932 kPa | 731.4 ± 2
21014 kPa | 731.3 ± 2
21046 kPa | 731.3 ± 2
21075 kPa | 731.3 ± 2
21144 kPa | 731.3 ± 2
21163 kPa | 731.4 ± 2
21200 kPa | 731.3 ± 2
21226 kPa | 731.6 ± 2
21308 kPa | 731.5 ± 2
21387 kPa | 731.5 ± 2
21414 kPa | 731.7 ± 2
21440 kPa | 731.6 ± 2
21471 kPa | 731.6 ± 2
21495 kPa | 731.7 ± 2
21516 kPa | 731.6 ± 2
21536 kPa | 731.6 ± 2
21563 kPa | 731.7 ± 2
21597 kPa | 731.7 ± 2
21621 kPa | 731.6 ± 2
21642 kPa | 731.8 ± 2
21663 kPa | 731.8 ± 2
21686 kPa | 731.8 ± 2
21728 kPa | 731.9 ± 2
21752 kPa | 731.8 ± 2
21771 kPa | 731.8 ± 2
21827 kPa | 731.8 ± 2
21852 kPa | 731.9 ± 2
21883 kPa | 731.9 ± 2
21911 kPa | 731.9 ± 2
21932 kPa | 731.9 ± 2
21953 kPa | 731.9 ± 2
21985 kPa | 731.9 ± 2
22006 kPa | 731.9 ± 2
22034 kPa | 732 ± 2
22060 kPa | 732.1 ± 2
22083 kPa | 732.1 ± 2
22115 kPa | 732 ± 2
22140 kPa | 732.1 ± 2
22165 kPa | 732 ± 2
22198 kPa | 732.2 ± 2
22216 kPa | 732 ± 2
22245 kPa | 732.2 ± 2
22263 kPa | 732.1 ± 2
22292 kPa | 732.2 ± 2
22321 kPa | 732.2 ± 2
22348 kPa | 732.2 ± 2
22374 kPa | 732.2 ± 2
22400 kPa | 732.2 ± 2
22426 kPa | 732.3 ± 2
22522 kPa | 732.3 ± 2
22577 kPa | 732.3 ± 2
22645 kPa | 732.5 ± 2
22672 kPa | 732.5 ± 2
22699 kPa | 732.4 ± 2
22729 kPa | 732.6 ± 2
22756 kPa | 732.5 ± 2
22794 kPa | 732.6 ± 2
22828 kPa | 732.6 ± 2
22855 kPa | 732.6 ± 2
22882 kPa | 732.5 ± 2
22904 kPa | 732.6 ± 2
22939 kPa | 732.7 ± 2
23398 kPa | 733 ± 2
23435 kPa | 732.9 ± 2
23468 kPa | 732.9 ± 2
23492 kPa | 733 ± 2
23529 kPa | 733 ± 2
23554 kPa | 733 ± 2
23579 kPa | 733.1 ± 2
23611 kPa | 733.2 ± 2
23636 kPa | 733 ± 2
23669 kPa | 733.1 ± 2
23699 kPa | 733.2 ± 2
23732 kPa | 733.2 ± 2
23758 kPa | 733.2 ± 2
23792 kPa | 733.3 ± 2
23821 kPa | 733.4 ± 2
23851 kPa | 733.2 ± 2
23873 kPa | 733.2 ± 2
23894 kPa | 733.3 ± 2
23923 kPa | 733.4 ± 2
23954 kPa | 733.4 ± 2.1
23992 kPa | 733.4 ± 2.1
24027 kPa | 733.4 ± 2.1
24054 kPa | 733.4 ± 2.1
24081 kPa | 733.5 ± 2.1
24116 kPa | 733.5 ± 2.1
24142 kPa | 733.4 ± 2.1
